Results as given in ChEMBL document CHEMBL5291721, “A preclinical secondary pharmacology resource illuminates target-adverse drug reaction associations of marketed drugs” (Nat Commun, 2023).

What was measured:
Progesterone receptor [1] = biological target: T1, Progesterone receptor (Homo sapiens, UniProt P06401); format: functional
T1 sequence (P06401 whole entry): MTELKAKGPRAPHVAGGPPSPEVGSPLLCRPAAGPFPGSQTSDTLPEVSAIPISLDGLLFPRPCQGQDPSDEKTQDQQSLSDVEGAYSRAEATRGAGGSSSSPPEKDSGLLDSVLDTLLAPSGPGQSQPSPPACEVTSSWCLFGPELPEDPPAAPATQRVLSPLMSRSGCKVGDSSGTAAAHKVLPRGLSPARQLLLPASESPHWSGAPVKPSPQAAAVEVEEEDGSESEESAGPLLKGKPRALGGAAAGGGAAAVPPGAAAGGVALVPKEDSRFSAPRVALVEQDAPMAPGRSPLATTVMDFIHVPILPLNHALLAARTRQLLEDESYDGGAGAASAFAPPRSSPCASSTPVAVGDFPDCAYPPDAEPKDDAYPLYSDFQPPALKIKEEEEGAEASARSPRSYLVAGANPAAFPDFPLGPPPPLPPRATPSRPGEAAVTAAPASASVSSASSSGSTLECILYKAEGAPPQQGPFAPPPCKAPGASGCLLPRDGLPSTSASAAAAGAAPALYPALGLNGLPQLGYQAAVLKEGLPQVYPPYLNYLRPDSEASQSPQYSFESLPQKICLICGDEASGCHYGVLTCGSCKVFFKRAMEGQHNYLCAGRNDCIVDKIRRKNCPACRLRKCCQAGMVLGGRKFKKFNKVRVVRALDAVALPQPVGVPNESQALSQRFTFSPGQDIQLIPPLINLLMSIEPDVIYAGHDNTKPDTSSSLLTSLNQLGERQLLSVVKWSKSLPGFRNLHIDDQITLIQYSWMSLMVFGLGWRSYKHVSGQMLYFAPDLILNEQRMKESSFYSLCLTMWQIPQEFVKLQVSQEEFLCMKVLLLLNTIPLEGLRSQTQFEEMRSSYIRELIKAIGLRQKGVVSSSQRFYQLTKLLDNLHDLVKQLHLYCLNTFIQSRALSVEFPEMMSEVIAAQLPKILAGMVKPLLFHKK

Vasopressin V1a receptor = Vasopressin V1a receptor (Homo sapiens, UniProt P37288)
Adenosine receptor A1 = biological target: T2, Adenosine receptor A1 (Homo sapiens, UniProt P30542)
T2 sequence (P30542 whole entry): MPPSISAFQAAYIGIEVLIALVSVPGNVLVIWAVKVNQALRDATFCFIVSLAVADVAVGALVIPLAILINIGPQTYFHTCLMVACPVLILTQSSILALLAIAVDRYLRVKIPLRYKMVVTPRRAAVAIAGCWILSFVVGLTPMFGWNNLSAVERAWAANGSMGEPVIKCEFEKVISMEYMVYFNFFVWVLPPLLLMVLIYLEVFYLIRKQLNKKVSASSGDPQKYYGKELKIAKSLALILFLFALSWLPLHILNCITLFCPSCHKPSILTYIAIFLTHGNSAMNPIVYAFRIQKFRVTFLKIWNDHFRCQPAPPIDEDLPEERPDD

Vasopressin V2 receptor = Vasopressin V2 receptor (Homo sapiens, UniProt P30518)
[2] = biological target: T3, Type-1 angiotensin II receptor (Homo sapiens, UniProt P30556)
T3 sequence (P30556 whole entry): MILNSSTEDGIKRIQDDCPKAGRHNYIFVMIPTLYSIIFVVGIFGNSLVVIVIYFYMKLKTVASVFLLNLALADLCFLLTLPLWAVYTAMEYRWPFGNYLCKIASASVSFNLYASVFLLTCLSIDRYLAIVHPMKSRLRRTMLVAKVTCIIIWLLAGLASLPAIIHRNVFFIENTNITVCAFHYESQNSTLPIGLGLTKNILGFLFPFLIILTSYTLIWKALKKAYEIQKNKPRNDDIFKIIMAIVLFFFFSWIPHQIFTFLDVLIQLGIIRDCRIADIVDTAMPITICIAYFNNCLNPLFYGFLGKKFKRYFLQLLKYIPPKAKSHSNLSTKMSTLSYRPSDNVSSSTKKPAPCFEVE

[3] = biological target: Voltage-dependent L-type calcium channel subunit alpha-1C (Rattus norvegicus, UniProt P22002); format: functional
[4] = biological target: Gamma-aminobutyric acid receptor subunit alpha-1 (Rattus norvegicus, UniProt P62813); format: functional
Cannabinoid receptor 1 = Cannabinoid receptor 1 (Homo sapiens, UniProt P21554); format: functional, cell-based
[5] = biological target: T4, Alpha-2B adrenergic receptor (Homo sapiens, UniProt P18089)
T4 sequence (P18089 whole entry): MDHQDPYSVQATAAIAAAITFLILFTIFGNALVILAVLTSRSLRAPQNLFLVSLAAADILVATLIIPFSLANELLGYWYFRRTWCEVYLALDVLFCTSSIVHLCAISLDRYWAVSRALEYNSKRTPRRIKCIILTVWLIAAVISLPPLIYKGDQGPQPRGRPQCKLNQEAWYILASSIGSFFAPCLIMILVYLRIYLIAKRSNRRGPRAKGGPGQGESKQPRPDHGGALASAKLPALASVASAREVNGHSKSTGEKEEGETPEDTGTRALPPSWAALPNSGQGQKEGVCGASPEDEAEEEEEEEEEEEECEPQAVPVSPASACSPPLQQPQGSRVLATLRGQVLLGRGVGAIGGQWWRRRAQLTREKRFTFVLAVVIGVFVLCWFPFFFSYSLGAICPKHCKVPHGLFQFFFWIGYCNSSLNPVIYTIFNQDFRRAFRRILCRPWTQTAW

Progesterone receptor [6] = biological target: T1, Progesterone receptor; format: functional; remark: listed apart in the source
[7] = biological target: Sodium-dependent noradrenaline transporter (Homo sapiens, UniProt P23975)
[8] = biological target: T5, 5-hydroxytryptamine receptor 1A (Homo sapiens, UniProt P08908); format: functional, cell-based
T5 sequence (P08908 whole entry): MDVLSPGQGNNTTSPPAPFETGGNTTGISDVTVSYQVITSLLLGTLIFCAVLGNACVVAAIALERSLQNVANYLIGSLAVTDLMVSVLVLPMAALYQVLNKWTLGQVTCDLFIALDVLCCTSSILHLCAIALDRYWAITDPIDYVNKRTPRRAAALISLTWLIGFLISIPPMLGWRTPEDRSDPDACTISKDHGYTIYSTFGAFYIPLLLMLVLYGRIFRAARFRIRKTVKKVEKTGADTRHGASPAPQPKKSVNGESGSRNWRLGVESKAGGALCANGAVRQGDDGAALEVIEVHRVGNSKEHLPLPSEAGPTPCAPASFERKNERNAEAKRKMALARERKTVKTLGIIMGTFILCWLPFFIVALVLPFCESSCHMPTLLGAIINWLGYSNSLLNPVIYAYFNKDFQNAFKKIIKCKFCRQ
Also: assay procedure not described here.

Sequence of Sodium-dependent noradrenaline transporter (P23975 whole entry): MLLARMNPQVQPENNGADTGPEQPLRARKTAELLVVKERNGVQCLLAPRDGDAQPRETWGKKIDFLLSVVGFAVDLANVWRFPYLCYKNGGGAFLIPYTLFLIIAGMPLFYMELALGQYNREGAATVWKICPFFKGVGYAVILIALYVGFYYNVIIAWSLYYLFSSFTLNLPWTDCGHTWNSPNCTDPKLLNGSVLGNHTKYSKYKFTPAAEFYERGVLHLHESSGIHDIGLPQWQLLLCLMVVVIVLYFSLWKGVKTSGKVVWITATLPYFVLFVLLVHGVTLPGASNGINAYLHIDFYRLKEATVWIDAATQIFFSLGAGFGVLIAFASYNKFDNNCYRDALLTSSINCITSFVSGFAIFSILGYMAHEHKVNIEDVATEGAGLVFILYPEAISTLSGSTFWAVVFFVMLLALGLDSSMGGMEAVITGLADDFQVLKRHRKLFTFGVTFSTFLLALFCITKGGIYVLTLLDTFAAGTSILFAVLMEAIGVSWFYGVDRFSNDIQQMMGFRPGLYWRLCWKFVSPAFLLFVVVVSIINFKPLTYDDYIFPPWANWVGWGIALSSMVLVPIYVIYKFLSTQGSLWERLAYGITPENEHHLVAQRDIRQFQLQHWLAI
Sequence of Vasopressin V1a receptor (P37288 whole entry): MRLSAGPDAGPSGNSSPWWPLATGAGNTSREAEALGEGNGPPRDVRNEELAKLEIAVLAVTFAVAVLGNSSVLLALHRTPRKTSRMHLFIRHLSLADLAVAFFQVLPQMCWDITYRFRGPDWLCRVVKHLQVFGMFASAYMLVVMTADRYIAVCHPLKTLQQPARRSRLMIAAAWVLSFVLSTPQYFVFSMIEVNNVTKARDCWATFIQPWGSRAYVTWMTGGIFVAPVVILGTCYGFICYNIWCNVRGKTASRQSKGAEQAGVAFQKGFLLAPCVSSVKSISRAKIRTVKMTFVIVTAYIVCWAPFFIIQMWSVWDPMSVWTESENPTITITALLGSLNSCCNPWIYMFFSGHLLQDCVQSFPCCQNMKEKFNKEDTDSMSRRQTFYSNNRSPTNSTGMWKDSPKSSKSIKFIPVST
Sequence of Gamma-aminobutyric acid receptor subunit alpha-1 (P62813 whole entry): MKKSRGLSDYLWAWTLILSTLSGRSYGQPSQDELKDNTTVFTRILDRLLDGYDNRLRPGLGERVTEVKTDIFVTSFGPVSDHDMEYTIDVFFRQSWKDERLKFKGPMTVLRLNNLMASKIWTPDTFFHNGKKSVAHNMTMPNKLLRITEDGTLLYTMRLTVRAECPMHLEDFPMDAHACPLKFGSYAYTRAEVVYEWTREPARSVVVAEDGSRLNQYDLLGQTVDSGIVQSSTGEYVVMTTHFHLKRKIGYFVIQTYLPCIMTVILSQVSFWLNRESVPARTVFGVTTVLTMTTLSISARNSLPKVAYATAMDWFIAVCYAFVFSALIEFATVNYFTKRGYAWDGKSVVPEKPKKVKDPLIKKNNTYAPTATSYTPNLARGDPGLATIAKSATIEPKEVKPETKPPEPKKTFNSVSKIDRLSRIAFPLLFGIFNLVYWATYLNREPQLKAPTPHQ
Sequence of Cannabinoid receptor 1 (P21554 whole entry): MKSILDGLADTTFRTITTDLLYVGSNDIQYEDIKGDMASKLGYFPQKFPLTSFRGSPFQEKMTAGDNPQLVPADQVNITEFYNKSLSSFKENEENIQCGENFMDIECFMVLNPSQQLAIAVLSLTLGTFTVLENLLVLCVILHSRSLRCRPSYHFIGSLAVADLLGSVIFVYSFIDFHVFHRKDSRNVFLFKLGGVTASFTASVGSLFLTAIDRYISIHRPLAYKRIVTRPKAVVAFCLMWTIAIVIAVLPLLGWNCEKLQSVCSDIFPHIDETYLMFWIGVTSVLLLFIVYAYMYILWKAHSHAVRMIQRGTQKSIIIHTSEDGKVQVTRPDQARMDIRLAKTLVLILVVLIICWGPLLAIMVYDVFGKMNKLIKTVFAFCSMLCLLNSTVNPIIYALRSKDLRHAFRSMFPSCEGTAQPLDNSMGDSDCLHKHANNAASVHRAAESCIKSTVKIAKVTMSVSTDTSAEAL
Sequence of Voltage-dependent L-type calcium channel subunit alpha-1C (P22002 whole entry): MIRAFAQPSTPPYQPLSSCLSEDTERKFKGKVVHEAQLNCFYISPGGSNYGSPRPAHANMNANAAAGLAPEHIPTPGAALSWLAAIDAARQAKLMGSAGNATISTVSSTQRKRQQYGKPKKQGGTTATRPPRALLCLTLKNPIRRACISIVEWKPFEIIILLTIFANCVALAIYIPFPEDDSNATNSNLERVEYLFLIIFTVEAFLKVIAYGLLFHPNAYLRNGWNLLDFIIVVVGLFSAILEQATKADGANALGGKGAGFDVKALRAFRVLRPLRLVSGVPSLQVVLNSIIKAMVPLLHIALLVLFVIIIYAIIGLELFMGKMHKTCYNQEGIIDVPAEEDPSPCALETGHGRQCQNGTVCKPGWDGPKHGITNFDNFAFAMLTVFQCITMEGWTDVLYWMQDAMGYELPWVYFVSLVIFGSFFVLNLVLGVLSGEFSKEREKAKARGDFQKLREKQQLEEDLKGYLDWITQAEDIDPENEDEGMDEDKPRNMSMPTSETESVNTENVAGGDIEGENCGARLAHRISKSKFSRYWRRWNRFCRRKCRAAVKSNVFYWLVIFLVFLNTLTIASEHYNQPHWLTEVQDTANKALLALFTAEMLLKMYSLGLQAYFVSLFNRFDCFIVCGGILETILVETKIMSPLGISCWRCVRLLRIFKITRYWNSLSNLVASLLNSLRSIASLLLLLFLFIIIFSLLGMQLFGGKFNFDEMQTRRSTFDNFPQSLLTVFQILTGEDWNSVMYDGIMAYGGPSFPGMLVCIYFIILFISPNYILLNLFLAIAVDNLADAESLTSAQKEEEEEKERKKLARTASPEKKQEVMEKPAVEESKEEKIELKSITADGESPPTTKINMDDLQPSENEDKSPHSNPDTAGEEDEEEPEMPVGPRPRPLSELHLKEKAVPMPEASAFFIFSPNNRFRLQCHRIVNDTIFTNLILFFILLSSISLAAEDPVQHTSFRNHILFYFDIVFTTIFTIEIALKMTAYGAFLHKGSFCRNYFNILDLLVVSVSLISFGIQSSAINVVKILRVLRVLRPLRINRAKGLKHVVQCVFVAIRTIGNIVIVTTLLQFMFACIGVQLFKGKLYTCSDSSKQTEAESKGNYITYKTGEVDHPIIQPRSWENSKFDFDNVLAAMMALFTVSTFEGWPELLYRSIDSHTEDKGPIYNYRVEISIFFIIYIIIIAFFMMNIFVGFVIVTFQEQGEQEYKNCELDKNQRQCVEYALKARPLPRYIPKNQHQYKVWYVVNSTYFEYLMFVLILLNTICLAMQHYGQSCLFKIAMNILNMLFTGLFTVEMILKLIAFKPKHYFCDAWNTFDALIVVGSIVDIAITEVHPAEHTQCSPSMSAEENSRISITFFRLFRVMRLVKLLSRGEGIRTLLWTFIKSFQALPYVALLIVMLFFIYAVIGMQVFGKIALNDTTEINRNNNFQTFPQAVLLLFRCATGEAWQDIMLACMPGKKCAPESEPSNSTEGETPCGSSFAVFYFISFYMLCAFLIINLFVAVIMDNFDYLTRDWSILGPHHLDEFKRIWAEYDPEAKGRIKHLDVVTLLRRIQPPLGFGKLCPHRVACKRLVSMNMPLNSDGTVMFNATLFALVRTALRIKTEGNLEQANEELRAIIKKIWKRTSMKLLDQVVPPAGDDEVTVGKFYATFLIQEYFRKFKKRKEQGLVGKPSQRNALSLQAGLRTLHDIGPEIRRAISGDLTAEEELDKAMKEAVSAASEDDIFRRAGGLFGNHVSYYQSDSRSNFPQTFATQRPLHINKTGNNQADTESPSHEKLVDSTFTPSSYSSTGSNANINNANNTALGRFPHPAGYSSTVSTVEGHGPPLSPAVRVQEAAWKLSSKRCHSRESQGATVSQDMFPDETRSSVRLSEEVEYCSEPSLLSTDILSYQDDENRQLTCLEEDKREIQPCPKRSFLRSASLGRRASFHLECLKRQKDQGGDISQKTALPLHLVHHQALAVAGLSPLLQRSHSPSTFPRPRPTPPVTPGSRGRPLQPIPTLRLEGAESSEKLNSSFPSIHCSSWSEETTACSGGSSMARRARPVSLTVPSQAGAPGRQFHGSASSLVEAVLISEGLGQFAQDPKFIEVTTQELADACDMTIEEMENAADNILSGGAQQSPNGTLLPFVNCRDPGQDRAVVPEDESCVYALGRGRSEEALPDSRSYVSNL
Sequence of Vasopressin V2 receptor (P30518 whole entry): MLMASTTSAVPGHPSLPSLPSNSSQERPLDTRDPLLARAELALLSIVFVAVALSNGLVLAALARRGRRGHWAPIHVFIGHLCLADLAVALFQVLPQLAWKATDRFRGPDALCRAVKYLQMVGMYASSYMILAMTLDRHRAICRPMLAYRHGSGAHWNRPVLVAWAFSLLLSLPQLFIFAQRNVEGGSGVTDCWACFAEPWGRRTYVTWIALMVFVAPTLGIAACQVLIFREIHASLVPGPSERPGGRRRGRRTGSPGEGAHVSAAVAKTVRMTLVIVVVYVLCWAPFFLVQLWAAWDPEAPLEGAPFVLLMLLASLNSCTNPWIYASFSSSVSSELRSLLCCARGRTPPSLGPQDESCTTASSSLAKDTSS

With `CNCCc1ccc(OC(=O)C(C)C)c(OC(=O)C(C)C)c1` [IBOPAMINE] the AC50 (Progesterone receptor [1]) was > 30 µM, the AC50 (Vasopressin V1a receptor) was > 30 µM and the AC50 (Adenosine receptor A1) was > 30 µM. For the same molecule, the AC50 (Vasopressin V2 receptor) was > 30 µM, the AC50 [2] was > 30 µM and the AC50 [3] was 18 µM. The AC50 [4] was > 30 µM, the AC50 (Cannabinoid receptor 1) was > 30 µM and the AC50 [5] was > 30 µM. The AC50 (Progesterone receptor [6]) was > 30 µM, the AC50 [7] was > 30 µM and the AC50 [8] was > 30 µM.
For `CN(C)CCCN1c2ccccc2CCc2ccccc21` [IMIPRAMINE], the AC50 (Vasopressin V1a receptor) was > 10 µM, the AC50 (Adenosine receptor A1) was > 30 µM and the AC50 (Vasopressin V2 receptor) was > 30 µM. The AC50 [2] was > 30 µM, the AC50 [4] was > 10 µM and the AC50 (Cannabinoid receptor 1) was > 30 µM. For the same molecule, the AC50 [5] was 0.32 µM and the AC50 [8] was > 10 µM.
For `COC(=O)C1=C(C)NC(C)=C(C(=O)OCCN2CCN(C(c3ccccc3)c3ccccc3)CC2)C1c1cccc([N+](=O)[O-])c1` (stereo not given) [MANIDIPINE 6300], the AC50 (Vasopressin V1a receptor) was > 30 µM, the AC50 (Adenosine receptor A1) was > 30 µM and the AC50 (Vasopressin V2 receptor) was > 30 µM. For the same molecule, the AC50 [2] was > 30 µM, the AC50 [3] was 0.3 µM and the AC50 [4] was > 30 µM. For the same molecule, the AC50 (Cannabinoid receptor 1) was > 30 µM, the AC50 [5] was > 30 µM and the AC50 (Progesterone receptor [6]) was > 30 µM. For the same molecule, the AC50 [7] was > 30 µM and the AC50 [8] was > 30 µM.
For `C=C1c2cccc(O)c2C(=O)C2=C(O)[C@]3(O)C(=O)C(C(N)=O)=C(O)[C@@H](N(C)C)[C@@H]3[C@@H](O)[C@H]12` [METHACYCLINE], the AC50 (Progesterone receptor [1]) was > 30 µM, the AC50 (Vasopressin V1a receptor) was > 30 µM and the AC50 (Adenosine receptor A1) was > 30 µM. For the same molecule, the AC50 (Vasopressin V2 receptor) was > 30 µM, the AC50 [2] was > 10 µM and the AC50 [3] was > 10 µM. The AC50 [4] was > 10 µM, the AC50 [5] was > 10 µM and the AC50 (Progesterone receptor [6]) was > 30 µM. The AC50 [7] was > 10 µM and the AC50 [8] was > 10 µM.
`OC[C@H]1O[C@@H](n2cnc3c2NC=NC[C@H]3O)C[C@@H]1O` [PENTOSTATIN] was tested, and the AC50 (Progesterone receptor [1]) was > 30 µM, the AC50 (Vasopressin V1a receptor) was > 30 µM and the AC50 (Adenosine receptor A1) was 0.41 µM. For the same molecule, the AC50 (Vasopressin V2 receptor) was > 30 µM, the AC50 [2] was > 30 µM and the AC50 [4] was > 30 µM. For the same molecule, the AC50 (Cannabinoid receptor 1) was > 30 µM, the AC50 [5] was > 30 µM and the AC50 (Progesterone receptor [6]) was > 30 µM. The AC50 [7] was > 30 µM and the AC50 [8] was > 30 µM.
For `CN[C@@H](C)[C@@H](O)c1ccccc1` [PSEUDOEPHEDRINE], the AC50 (Vasopressin V1a receptor) was > 10 µM, the AC50 (Adenosine receptor A1) was > 30 µM and the AC50 (Vasopressin V2 receptor) was > 30 µM. The AC50 [2] was > 30 µM, the AC50 [3] was > 10 µM and the AC50 [4] was > 10 µM. The AC50 [5] was > 10 µM, the AC50 [7] was > 10 µM and the AC50 [8] was > 10 µM.
For `O=C1OC(OC(=O)c2cccnc2Nc2cccc(C(F)(F)F)c2)c2ccccc21` (stereo not given) [TALNIFLUMATE], the AC50 (Progesterone receptor [1]) was > 30 µM, the AC50 (Vasopressin V1a receptor) was > 30 µM and the AC50 (Adenosine receptor A1) was > 30 µM. For the same molecule, the AC50 (Vasopressin V2 receptor) was > 30 µM, the AC50 [2] was > 30 µM and the AC50 [4] was > 30 µM. For the same molecule, the AC50 (Cannabinoid receptor 1) was > 30 µM, the AC50 [5] was > 30 µM and the AC50 (Progesterone receptor [6]) was > 30 µM. The AC50 [7] was > 30 µM and the AC50 [8] was > 30 µM.
With `C[C@]12C=CC(=O)C=C1CC[C@@H]1[C@@H]2CC[C@]2(C)OC(=O)CC[C@@H]12` [TESTOLACTONE] the AC50 (Progesterone receptor [1]) was > 10 µM, the AC50 (Vasopressin V1a receptor) was > 10 µM and the AC50 (Adenosine receptor A1) was > 10 µM. For the same molecule, the AC50 (Vasopressin V2 receptor) was > 10 µM, the AC50 [2] was > 10 µM and the AC50 [3] was > 10 µM. The AC50 [4] was > 10 µM, the AC50 (Cannabinoid receptor 1) was > 30 µM and the AC50 [5] was > 10 µM. For the same molecule, the AC50 (Progesterone receptor [6]) was > 10 µM, the AC50 [7] was > 10 µM and the AC50 [8] was > 10 µM.
